Drawing on patent publication US8912329B2 (priority 2009, dated 2014), this text covers remaining activity for 18 compounds.

SMILES strings stand for the structures.

EthR-VP16, sequence (Q7TVI1 whole entry, looked up): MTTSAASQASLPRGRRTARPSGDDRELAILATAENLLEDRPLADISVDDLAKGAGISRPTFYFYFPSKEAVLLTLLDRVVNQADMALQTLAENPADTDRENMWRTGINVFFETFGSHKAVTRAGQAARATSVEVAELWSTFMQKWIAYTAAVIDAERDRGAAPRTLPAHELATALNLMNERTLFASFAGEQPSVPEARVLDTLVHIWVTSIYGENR

The experiment addresses EthR-VP16 (Mycobacterium bovis, UniProt Q7TVI1). Briefly: cell-based. Further details: species or system M. bovis. The conditions noted are these: 48 h, read-out: % EthR activity (w/o = 100%); ± std. dev. of the mean (n = 3).
`CCCC(=O)N1CCN(Cc2ccccc2)CC1` [Example 1, 1-(4-Benzylpiperazin-1-yl)butan-1-one]: the remaining activity at 0.5 µM is 72.5 ± 1.65%, the remaining activity at 1.5 µM turned out to be 76.5 ± 17.5%, the remaining activity at 3 µM stood at 68.7 ± 2.79% and the remaining activity at 6 µM came out at 73.2 ± 1.19%. For the same compound, the remaining activity at 15 µM was determined as 72.6 ± 6.82%, the remaining activity at 30 µM came to 64.1 ± 14%, the remaining activity at 60 µM turned out to be 53.1 ± 7.78% and the remaining activity at 300 µM amounted to 27.3 ± 5.27%.

Take `CCCC(=O)N1CCOC(c2ccccc2)C1` (stereo not drawn) [Example 3, 1-(2-Phenylmorpholino)butan-1-one]: the remaining activity at 0.5 µM was 85.5 ± 2.57%, the remaining activity at 1.5 µM came to 96.82 ± 0.67%, the remaining activity at 3 µM was found to be 84.4 ± 6.37% and the remaining activity at 6 µM is 90.1 ± 6.44%. The remaining activity at 15 µM was 98.4 ± 4.51%, the remaining activity at 30 µM amounted to 86.5 ± 4.1%, the remaining activity at 60 µM was 81.9 ± 8.6% and the remaining activity at 300 µM was 40.2 ± 4.65%.

With `CCCC(=O)N1CCC(c2ccccc2)C1` (stereo not drawn) [Example 13, 1-(3-Phenylpyrrolidin-1-yl)butan-1-one], the remaining activity at 0.5 µM is 30.4 ± 3.98%, the remaining activity at 1.5 µM was 17.7 ± 2.01%, the remaining activity at 3 µM is 11 ± 2.88% and the remaining activity at 6 µM came out at 10.9 ± 1.45%. In addition, the remaining activity at 15 µM is 12.4 ± 0.99%, the remaining activity at 30 µM was found to be 14.5 ± 7.8%, the remaining activity at 60 µM came to 10.8 ± 1.34% and the remaining activity at 300 µM worked out at 12 ± 1.27%.

Take `O=C(Cc1cccs1)N1CCOC(c2ccccc2)C1` (stereo not drawn) [Example 14, 1-(2-Phenylmorpholin-4-yl)-2-(thiophen-2-yl)ethan-1-one]: the remaining activity at 0.5 µM worked out at 106 ± 19.8%, the remaining activity at 1.5 µM stood at 86.2 ± 1.36%, the remaining activity at 3 µM came to 85.9 ± 6.26% and the remaining activity at 6 µM was determined as 74.8 ± 1.22%. Besides, the remaining activity at 15 µM was determined as 60.5 ± 1.32%, the remaining activity at 30 µM amounted to 35.4 ± 5.3%, the remaining activity at 60 µM turned out to be 25.5 ± 3.82% and the remaining activity at 300 µM is 9.16 ± 1.37%.

For `O=C(CCc1ccco1)N1CCN(Cc2ccccc2)CC1` [Example 18, 1-(4-Benzylpiperazin-1-yl)-3-(furan-2-yl)propan-1-one], the remaining activity at 0.5 µM came to 91.9 ± 3.57%, the remaining activity at 1.5 µM turned out to be 80.7 ± 8.89%, the remaining activity at 3 µM was determined as 81.4 ± 15.9% and the remaining activity at 6 µM came out at 59.3 ± 1.2%. Besides, the remaining activity at 15 µM came out at 44.2 ± 2.35%, the remaining activity at 30 µM was found to be 11.2 ± 1.68%, the remaining activity at 60 µM is 12.4 ± 1.85% and the remaining activity at 300 µM was found to be 1.74 ± 0.26%.

As to `CC(C)CC(=O)N1CCOC(c2ccccc2)C1` (stereo not drawn) [Example 19, 3-Methyl-1-(2-phenylmorpholin-4-yl)butan-1-one], the remaining activity at 0.5 µM was found to be 95.6 ± 9.07%, the remaining activity at 1.5 µM amounted to 102 ± 4.13%, the remaining activity at 3 µM worked out at 95.9 ± 9.02% and the remaining activity at 6 µM is 96.4 ± 13.5%. For the same compound, the remaining activity at 15 µM is 76 ± 6.56%, the remaining activity at 30 µM was determined as 35.2 ± 5.28%, the remaining activity at 60 µM was determined as 33.5 ± 5.96% and the remaining activity at 300 µM was 27.6 ± 0.37%.

Turning to `CC(C)(C)CC(=O)N1CCOC(c2ccccc2)C1` (stereo not drawn) [Example 20, 3,3-Dimethyl-1-(2-phenylmorpholin-4-yl)butan-1-one], the remaining activity at 0.5 µM amounted to 96.6 ± 11.1%, the remaining activity at 1.5 µM came out at 90.9 ± 14%, the remaining activity at 3 µM came to 88.2 ± 8.63% and the remaining activity at 6 µM is 89 ± 4.56%. In addition, the remaining activity at 15 µM turned out to be 75.5 ± 6.63%, the remaining activity at 30 µM is 43.7 ± 3.21%, the remaining activity at 60 µM amounted to 33 ± 6.41% and the remaining activity at 300 µM stood at 35.5 ± 1.37%.

Consider `O=C(CCc1ccccc1)N1CCOC(c2ccccc2)C1` (stereo not drawn) [Example 21, 3-Phenyl-1-(2-phenylmorpholin-4-yl)propan-1-one], for which the remaining activity at 0.5 µM came to 108 ± 7.36%, the remaining activity at 1.5 µM turned out to be 98.5 ± 16.4%, the remaining activity at 3 µM amounted to 73.5 ± 7.58% and the remaining activity at 6 µM turned out to be 60.2 ± 8.98%. Moreover, the remaining activity at 15 µM stood at 40.8 ± 4.81%, the remaining activity at 30 µM worked out at 8.33 ± 5.61%, the remaining activity at 60 µM is 6.29 ± 1.05% and the remaining activity at 300 µM is 1.34 ± 1.58%.

For `O=C(CCc1ccccc1)N1CCC1c1ccccc1` (stereo not drawn) [Example 22, 3-Phenyl-1-(2-phenylazetidin-1-yl)propan-1-one], the remaining activity at 0.5 µM amounted to 90 ± 15.2%, the remaining activity at 1.5 µM turned out to be 106 ± 10%, the remaining activity at 3 µM amounted to 97.4 ± 5.01% and the remaining activity at 6 µM was 90.2 ± 8.48%. In addition, the remaining activity at 15 µM was determined as 77.8 ± 4.33%, the remaining activity at 30 µM was 59.4 ± 4.5%, the remaining activity at 60 µM was determined as 33.2 ± 2.46% and the remaining activity at 300 µM was found to be 6.34 ± 0.89%.

For the compound `O=C(CCCc1ccccc1)N1CCC1c1ccccc1` (stereo not drawn) [Example 23, 4-Phenyl-1-(2-phenylazetidin-1-yl)butan-1-one], the remaining activity at 0.5 µM was 96.3 ± 10%, the remaining activity at 1.5 µM was determined as 102 ± 12.3%, the remaining activity at 3 µM amounted to 101 ± 9.55% and the remaining activity at 6 µM is 90.1 ± 9.21%. Moreover, the remaining activity at 15 µM was 86.8 ± 5.76%, the remaining activity at 30 µM came out at 81.5 ± 5.22%, the remaining activity at 60 µM is 49.4 ± 1.49% and the remaining activity at 300 µM worked out at 6.18 ± 2.53%.

Consider `O=C(CCc1ccccc1)N1CC(Cc2ccccc2)C1` [Example 25, 1-(3-Benzylazetidin-1-yl)-3-phenylpropan-1-one], for which the remaining activity at 0.5 µM came out at 86.8 ± 9.98%, the remaining activity at 1.5 µM was found to be 88.5 ± 8.12%, the remaining activity at 3 µM is 69.5 ± 4.27% and the remaining activity at 6 µM was 48 ± 5.86%. Also, the remaining activity at 15 µM amounted to 28.7 ± 3.22%, the remaining activity at 30 µM was 19.5 ± 0.89%, the remaining activity at 60 µM is 14.2 ± 3.23% and the remaining activity at 300 µM was found to be 6.03 ± 2%.

Turning to `O=C(CCCc1ccccc1)N1CC(Cc2ccccc2)C1` [Example 27, 1-(3-Benzylazetidin-1-yl)-4-phenylbutan-1-on], the remaining activity at 0.5 µM turned out to be 59.6 ± 2.49%, the remaining activity at 1.5 µM was determined as 42.6 ± 1.49%, the remaining activity at 3 µM is 37.9 ± 5.47% and the remaining activity at 6 µM worked out at 31.3 ± 3.58%. Further, the remaining activity at 15 µM was 31.7 ± 1.36%, the remaining activity at 30 µM was found to be 26.3 ± 9.65%, the remaining activity at 60 µM amounted to 17.5 ± 4.51% and the remaining activity at 300 µM is 15.3 ± 2.79%.

On to `CCCCC(=O)N1CCN(Cc2ccccc2)CC1` [Example 28, 1-(4-Benzylpiperazin-1-yl)pentan-1-one], for which the remaining activity at 0.5 µM was determined as 97.1 ± 9.36%, the remaining activity at 1.5 µM came to 81.5 ± 3.01%, the remaining activity at 3 µM came out at 59.4 ± 4.9% and the remaining activity at 6 µM amounted to 46.2 ± 2.55%. Moreover, the remaining activity at 15 µM turned out to be 38.3 ± 2.21%, the remaining activity at 30 µM came to 18.5 ± 3.64%, the remaining activity at 60 µM came to 11.7 ± 2.77% and the remaining activity at 300 µM turned out to be 10.2 ± 1.94%.

With `CCCCCC(=O)N1CCN(Cc2ccccc2)CC1` [Example 29, 1-(4-Benzylpiperazin-1-yl)hexan-1-one], the remaining activity at 0.5 µM turned out to be 85.4 ± 9.96%, the remaining activity at 1.5 µM amounted to 56 ± 5.54%, the remaining activity at 3 µM was 36.5 ± 3.17% and the remaining activity at 6 µM was found to be 26.5 ± 0.73%. The remaining activity at 15 µM came out at 16.9 ± 0.73%, the remaining activity at 30 µM was 16.7 ± 3.59%, the remaining activity at 60 µM stood at 10 ± 2.93% and the remaining activity at 300 µM was 12.9 ± 4.6%.

On to `CCCCC(=O)N1CCOC(c2ccccc2)C1` (stereo not drawn) [Example 30, 1-(2-Phenylmorpholin-4-yl)pentan-1-one], for which the remaining activity at 0.5 µM is 112 ± 16.1%, the remaining activity at 1.5 µM was determined as 111 ± 17.1%, the remaining activity at 3 µM stood at 101 ± 5.87% and the remaining activity at 6 µM was determined as 90.5 ± 5.55%. Moreover, the remaining activity at 15 µM is 69.2 ± 8.71%, the remaining activity at 30 µM was determined as 43.3 ± 2.01%, the remaining activity at 60 µM amounted to 26.9 ± 2.34% and the remaining activity at 300 µM came to 14.9 ± 3%.

Regarding `CCCCCC(=O)N1CCOC(c2ccccc2)C1` (stereo not drawn) [Example 31, 1-(2-Phenylmorpholin-4-yl)hexan-1-one], the remaining activity at 0.5 µM worked out at 106 ± 17.5%, the remaining activity at 1.5 µM came to 103 ± 16.4%, the remaining activity at 3 µM stood at 94.1 ± 15.9% and the remaining activity at 6 µM amounted to 63.7 ± 5.26%. Also, the remaining activity at 15 µM was found to be 33.2 ± 1.27%, the remaining activity at 30 µM was 25 ± 4.22%, the remaining activity at 60 µM came out at 17.8 ± 4.01% and the remaining activity at 300 µM was 15 ± 2.11%.

As to `CCCCC(=O)N1CCC(c2ccccc2)C1` (stereo not drawn) [Example 32, 1-(3-Phenylpyrrolidin-1-yl)pentan-1-one], the remaining activity at 0.5 µM came out at 12.5 ± 5.97%, the remaining activity at 1.5 µM turned out to be 10.7 ± 2.55%, the remaining activity at 3 µM worked out at 10.4 ± 2.69% and the remaining activity at 6 µM is 9.96 ± 3.44%. Besides, the remaining activity at 15 µM came out at 5.65 ± 1.1%, the remaining activity at 30 µM was found to be 8.77 ± 1.57%, the remaining activity at 60 µM amounted to 8.89 ± 1.74% and the remaining activity at 300 µM came to 1.56 ± 0.8%.

Consider `CCCCCC(=O)N1CCC(c2ccccc2)C1` (stereo not drawn) [Example 33, 1-(3-Phenylpyrrolidin-1-yl)hexan-1-one], for which the remaining activity at 0.5 µM was 11.4 ± 3.47%, the remaining activity at 1.5 µM is 14.9 ± 5.68%, the remaining activity at 3 µM came out at 5.8 ± 2.33% and the remaining activity at 6 µM is 3.83 ± 1.01%. Besides, the remaining activity at 15 µM is 4.58 ± 1.34%, the remaining activity at 30 µM stood at 5.01 ± 0.8%, the remaining activity at 60 µM is 5.24 ± 2.58% and the remaining activity at 300 µM amounted to 2.78 ± 1.33%.
